Experimental data taken from ChEMBL document CHEMBL1129701, “-Vinyllysine and -vinylarginine are time-dependent inhibitors of their cognate decarboxylases” (Bioorg Med Chem Lett, 1996).

Experiments:
[1] = Half life was reported; format: ADME
[2] = Compound was evaluated for binding affinity towards L-arginine decarboxylase (ADC) from Escherichia coli in UV time dependent assay.
Escherichia coli [3] = assay: Rate of inactivation against L-arginine decarboxylase (ADC) from Escherichia coli was determined in UV time dependent assay.
Escherichia coli [4] = assay: Compound was evaluated for inhibition of L-arginine decarboxylase (ADC) from Escherichia coli in UV time dependent assay.
[5] = Compound was evaluated for binding affinity against L-lysine decarboxylase (LDC) from Bacterium cadaveris in UV time dependent assay.
bacterium cadaveris [6] = assay: Rate of inactivation against L-lysine decarboxylase (LDC) from Bacterium cadaveris was determined in UV time dependent assay.
bacterium cadaveris [7] = assay: Compound was evaluated for inhibition L-lysine decarboxylase (LDC) from Bacterium cadaveris in UV time dependent assay.

K inact (Escherichia coli [3]) [min⁻¹]	Km (Escherichia coli [4]) [µM]	Structure (SMILES)	half-life [1] [min]	Ki [2] [µM]	Ki [5] [µM]	K inact (bacterium cadaveris [6]) [min⁻¹]	Km (bacterium cadaveris [7]) [µM]
0.036	180	C=C[C@](N)(CCCNC(=N)N)C(=O)O (racemic)	19	1800	–	–	–
–	–	C=C[C@](N)(CCCCN)C(=O)O (racemic)	35	–	500	0.02	640
